Data set [1] addresses T1, cannabinoidergic CB2 receptors (Rattus norvegicus, UniProt Q9QZN9).
T1 construct: the brain in toto (cerebellum excluded) and the spleen were rapidly dissected and maintained in ice; from tissue; host or cells: rat spleen, membrane preparation
T1 sequence (Q9QZN9 1-360): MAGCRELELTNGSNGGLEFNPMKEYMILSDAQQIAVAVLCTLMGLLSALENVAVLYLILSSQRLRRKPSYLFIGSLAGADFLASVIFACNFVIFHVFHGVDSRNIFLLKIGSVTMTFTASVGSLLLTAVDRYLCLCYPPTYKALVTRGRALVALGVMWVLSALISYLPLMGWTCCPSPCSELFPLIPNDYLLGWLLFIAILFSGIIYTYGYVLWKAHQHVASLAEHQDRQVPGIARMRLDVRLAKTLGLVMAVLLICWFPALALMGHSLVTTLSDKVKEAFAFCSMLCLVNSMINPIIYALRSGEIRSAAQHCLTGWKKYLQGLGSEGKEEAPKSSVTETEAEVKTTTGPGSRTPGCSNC
Nature of the data set: Radioreceptorial binding, [3H]-CP-55,940 competition, rat spleen membranes. To be noted: rat spleen membranes, 1 nM [3H]-CP55,940; read-out: CB2 (spleen) Ki. On the procedure: (§1) The affinity of the synthesized compounds towards the cannabinoidergic CB1 and CB2 receptors was evaluated in vitro through radioreceptorial binding studies by utilizing the following method.
(§2) The receptorial binding technique allows indeed to establish if and with what affinity and specificity a determined compound binds itself to a particular receptor. To evaluate the possible affinity of a determined compound towards a particular receptor it is necessary to make to compete (in a particular preparation of the tissue in which those determined receptors are present) the compound to be tested with another compound whose affinity is known and whose molecule was rendered radioactive. […] The reading of the radioactivity present in the receptor-compound complex allows furthermore to calculate with extreme precision the amount of compound bound to the receptor. […] By repeating the same experimental scheme it is possible to evaluate the affinity of the compound towards other kinds of receptors and establish then the specificity degree.
(§3) Food and water were available ad libitum.
(§4) The animals were sacrificed by cervical dislocation, the brain in toto (cerebellum excluded) and the spleen were rapidly dissected and maintained in ice.
(§5) The tissue was homogenized in 15 volumes (weight/volume) of TME buffer (50 mM Tris, 1 mM EDTA e 3 mM MgCl2, pH 7.4) by an Ultra-Turrax and centrifuged for 10 minutes at 1086×g in a centrifuge cooled at 4° C. The resulting supernatant was centrifuged at 45,000×g for 30 min at 4° C. by using a Beckman SW41 rotor and the final pellet was resuspended in 50 volumes of TME.
(§6) The obtained membranes (50-80 μg of proteins) were incubated in the presence of 1 nM di[^3H]-CP55,940 for 1 h at 30° C. in a final volume of 0.5 ml of TME buffer containing 5 mg/ml of bovine serum albumin (BSA). The non specific binding was measured in the presence of CP55,940 at the 1 μM concentration.
(§7) All the experiments were carried out in polypropylene test tubes pretreated with Sigma-Cote (Sigma Chemical Co. Ltd., Poole, UK) to reduce the non specific binding.
(§8) For the building of the competitive inhibition binding curves eight different concentrations of each compound were used.
(§9) Incubation was interrupted by addition of TME buffer (at 4° C.) containing 5 mg/ml of BSA and filtration under vacuum through Whatman GFC filters pretreated with 0.5% of polyethylamine (PEI) and by using a filtering apparatus (Brandell, Gaithersburg, Md., USA). Filters were washed 3 times with 5 ml of Tris HCl buffer (pH 7.4, 4° C.) containing 1 mg/ml of BSA and singly placed in plastic vials containing 4 ml of scintillating liquid (Ultima Gold MV, Packard).
(§10) The radioactivity present in the filters was measured by a scintillator spectrophotometer (Tricarb 2100, Packard, Meridien, USA).
(§11) The protein determination was carried out by the Bradford method by using the protocol and the reactants supplied by Bio-Rad (Milano, Italia).
(§12) The affinity of the compounds towards the CB1 and CB2 receptors was expressed in Ki terms.

Data set [2] addresses T2, cannabinoidergic CB1 receptors (Rattus norvegicus, UniProt P20272).
T2 construct: the brain in toto (cerebellum excluded) and the spleen were rapidly dissected and maintained in ice; from tissue; host or cells: rat brain (cerebellum excluded), membrane preparation
The experiment in a line: Radioreceptorial binding, [3H]-CP-55,940 competition, rat brain membranes. The settings on record: rat brain membranes, 1 nM [3H]-CP55,940; read-out: CB1 (brain) Ki. The protocol:
as §1, §2, §3, §4, §5, §6, §7, §8, §9, §10, §11, §12

The subject of data set [3] is rat. To be noted: for passage of the hemato-encephalic barrier: concluded from the hypothermia tests. On the procedure:
The rectal temperature in the rat was determined by an electronic thermometer inserted at a 2 mm depth. The measurements were carried out on rats acclimated for one hour. […]
Each test was repeated on ten animals; the reported results are the average of the results obtained with the ten animals.

Data set [4] concerns rat. The experiment in a line: Hypothermia test in vivo, antagonism of the hypothermia induced by WIN 55,212-2. The settings on record: for Body temperature: WIN 55,212-2 (3 mg/kg) + compound (0.1-30 mg/kg).
Procedure: The rectal temperature in the rat was determined by an electronic thermometer inserted at a 2 mm depth. The measurements were carried out on rats acclimated for one hour. The rectal temperature was determined before and after (from 30 to 120 minutes) the i.p. administration of the compound to be tested.
Another data set deals with rat intestinal motility. The experiment in a line: Intestinal motility, Upper Gut Transit Test, compound alone. The settings on record: WIN 55,212-2 0.5 mg/kg alone, control 50%. Format: in vivo. On the procedure:
To evaluate the activity in vivo of the compounds (I) object of the present invention, functional tests were carried out directed to the evaluation of the effect of said compounds on the rat intestinal motility. It was indeed shown the involvement of the cannabinoidergic CB1 receptors in the intestinal motility regulation in rat (R. G. Pertwee et al; Br. J. Pharmacol.; 1996, 118, 2199-2205). In particular, the CB1 receptor agonists slacken the gastrointestinal motility; antagonist compounds of the same receptors have instead a prokinetic effect on the gastrointestinal transit (G. Colombo et al.; Eur. J. Pharmacol.; 1998, 344, 67-69; M. A. Casu et al.; Eur. J. Pharmacol.; 2003, 459, 97-105).
The evaluation of the constipating or prokinetic effect of the compounds was carried out by the Upper Gut Transit Test method on the basis of the procedure defined and ratified by Y. Nagakura et al.; Eur. J. Pharmacol.; 1996, 311, 67-72. The method, which allows to measure the motility of the stomach and of the first intestine tract (small or little intestine), requires: • the administration of the compound to be tested by i.p. route; • the administration of carmine red (marker not directly absorbable from the stomach) by intragastric route through a metal probe, after 20 minutes from the administration of the compound to be tested; • the rat sacrifice by cervical dislocation after a pre-fixed time (30 minutes) starting from the administration time; • the intestine explant from pylorus to the ileo-cecal valve; • the determination of the intestinal part crossed by the marker; • the data processing to determine the percentage of crossed part with respect to the total length of the small intestine.
With respect to the control (physiological solution or carrier wherein the compounds to be tested were solubilized or dispersed), the administration of CB1 agonist compounds implies an intestinal transit percentage reduction; an opposite effect is noticed in case of antagonist compounds. The latter are therefore capable to cancel the constipating effect of CB1 agonist compounds.
Each test was repeated on ten animals; the results reported in the Examples are the average of the results obtained with ten animals.

Experimental findings from patent US8106218B2, “Pharmaceutical compounds” (Neuroscienze Pharmaness S.C. A R.L., priority 2004, dated 2012) are described below.

Each structure is given as a SMILES string. Read-outs that look alike come from different tables or passages of the source.

T2 sequence (P20272 whole entry): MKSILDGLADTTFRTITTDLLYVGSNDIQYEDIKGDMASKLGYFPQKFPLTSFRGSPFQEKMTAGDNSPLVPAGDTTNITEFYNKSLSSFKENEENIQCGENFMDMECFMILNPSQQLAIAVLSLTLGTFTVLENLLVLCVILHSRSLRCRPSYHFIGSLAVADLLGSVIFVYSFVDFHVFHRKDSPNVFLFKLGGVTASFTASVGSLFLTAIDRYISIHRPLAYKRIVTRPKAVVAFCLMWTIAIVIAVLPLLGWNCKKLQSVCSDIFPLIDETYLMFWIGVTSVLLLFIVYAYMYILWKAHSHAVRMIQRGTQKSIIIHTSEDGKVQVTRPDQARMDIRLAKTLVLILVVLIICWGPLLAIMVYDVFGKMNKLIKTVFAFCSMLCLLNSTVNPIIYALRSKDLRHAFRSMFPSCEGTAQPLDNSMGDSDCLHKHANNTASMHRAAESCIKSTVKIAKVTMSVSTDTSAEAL

Take `Cc1cc2c(s1)CCc1c(C(=O)NN3CCCCCC3)nn(-c3ccc(Cl)cc3Cl)c1-2` [Example 3.11, N-homopiperidinyl-7-methyl-1-(2′,4′-dichlorophenyl)-4,5-dihydro-1H-thieno[2,3-g]indazol-3-carboxamide]: the melting point came out at 229 °C. Further, the inhibitory constant (Ki) in data set [1] amounted to 57.1 ± 5 nM. For the same molecule, the Ki in data set [2] was determined as 57 ± 6 nM.

`O=C(NN1CCCCC1)c1nn(-c2ccc(Cl)cc2Cl)c2c1CCc1sc(Cl)cc1-2` [Example 3.1, N-piperidinyl-7-chloro-1-(2′,4′-dichlorophenyl)-4,5-dihydro-1H-thieno[2,3-g]indazol-3-carboxamide]: the results for the Ki in data set [1] and in data set [2] were 67.4 ± 6 nM and 44.3 ± 0.5 nM, respectively.

`O=C(NN1CCCCCC1)c1nn(-c2ccc(Cl)cc2Cl)c2c1CCc1sc(Br)cc1-2` [Example 3.8, N-homopiperidinyl-7-bromo-1-(2′,4′-dichlorophenyl)-4,5-dihydro-1H-thieno[2,3-g]indazol-3-carboxamide] came in with a melting point of 176 °C. The inhibitory constant (Ki) in data set [1] was found to be 60 ± 1 nM. Moreover, in data set [2], the inhibition constant Ki worked out at 9.6 ± 1.7 nM.

For the molecule `O=C(NN1CCCCC1)c1nn(-c2ccc(Cl)cc2Cl)c2c1CCc1sc(Br)cc1-2` [Example 3.2, N-piperidinyl-7-bromo-1-(2′,4′-dichlorophenyl)-4,5-dihydro-1H-thieno[2,3-g]indazol-3-carboxamide], the Body temperature is 38.0 °C with rat [3] (compound alone 0.1-30 mg/kg i.p., 0 min); 37.9 °C in the data set with rat [3] (compound alone 0.1-30 mg/kg i.p., 15 min); 38.0 °C in the data set with rat [3] (compound alone 0.1-30 mg/kg i.p., 30 min); 38.2 °C in the data set on rat [3] (compound alone 0.1-30 mg/kg i.p., 60 min); 38.1 °C with rat [3] (compound alone 0.1-30 mg/kg i.p., 90 min); 37.9 °C in the data set on rat [3] (compound alone 0.1-30 mg/kg i.p., 120 min). The Body temperature is 38.0 °C in the data set on rat [4] (0 min); 38.0 °C with rat [4] (15 min); 34.0 °C in the data set on rat [4] (30 min); 34.5 °C with rat [4] (60 min); 35.8 °C in the data set on rat [4] (90 min); 36.8 °C in the data set with rat [4] (120 min). Besides, the “passage of the hemato-encephalic barrier” value with rat [3] is given as “not able to pass the hemato-encephalic barrier”. The “effect on body temperature (hypothermia) of the compound alone, in words” value in the data set on rat [3] (i.p., compound alone, up to 120 min) is recorded as “In none of the examined cases there was a reduction of the body temperature”. Further, the Ki in data set [1] came out at 36.8 ± 5 nM; in data set [2], 4.47 ± 0.14 nM. In addition, in the data set with rat [4] (compound i.p. 30 min before WIN 55,212-2 (3 mg/kg)), the “antagonist activity towards the hypothermia induced by WIN 55,212-2, in words” value is “no variation of the body temperature with respect to the treatment with the only WIN 55,212-2”.

As to `Cc1c(C(=O)c2cccc3ccccc23)c2cccc3c2n1[C@H](CN1CCOCC1)CO3` [WIN 55,212-2, reference compound], the “intestinal portion run by the marker with respect to the total intestine length” value in the data set with rat intestinal motility is on record as 25%. The Body temperature stood at 37.9 °C in the data set with rat [3] (WIN 55,212-2 3 mg/kg alone, 0 min from administration); 35.6 °C in the data set with rat [3] (WIN 55,212-2 3 mg/kg alone, 15 min); 33.8 °C with rat [3] (WIN 55,212-2 3 mg/kg alone, 30 min); 34.5 °C with rat [3] (WIN 55,212-2 3 mg/kg alone, 60 min); 35.8 °C in the data set with rat [3] (WIN 55,212-2 3 mg/kg alone, 90 min); 36.8 °C with rat [3] (WIN 55,212-2 3 mg/kg alone, 120 min).

Molecule `O=C(NN1CCCC1)c1nn(-c2ccc(Cl)cc2Cl)c2c1CCc1sc(Br)cc1-2` [Example 3.7, N-pyrrolidinyl-7-bromo-1-(2′,4′-dichlorophenyl)-4,5-dihydro-1H-thieno[2,3-g]indazol-3-carboxamide] gave a melting point of 227 °C. The Ki in data set [1] stood at 195 ± 27 nM. Further, in data set [2], the Ki stood at 126 ± 5 nM.

Turning to `Cc1cc2c(s1)CCc1c(C(=O)NN3CCCCC3)nn(-c3ccc(Cl)cc3Cl)c1-2` [Example 3.9, N-piperidinyl-7-methyl-1-(2′,4′-dichlorophenyl)-4,5-dihydro-1H-thieno[2,3-g]indazol-3-carboxamide], the melting point turned out to be 216 °C. Further, in the data set on rat [3], the “passage of the hemato-encephalic barrier” value was “unable to pass the hemato-encephalic barrier”. For the same molecule, in data set [1], the Ki was determined as 55.1 ± 6 nM. The Ki in data set [2] turned out to be 7.88 ± 0.5 nM.
